Measured values from ChEMBL document CHEMBL1156944, “Efficient microwave-assisted prenylation of pinostrobin and biological evaluation of its derivatives as antitumor agents” (Bioorg Med Chem Lett, 2010).

Legend:
Type in all cases: functional, cell-based
[1] = Cytotoxicity against human COLO320DM cells after 72 hrs by WST-8 assay; details: COLO 320DM
SK-BR-3 = assay: Cytotoxicity against human SK-BR-3 cells after 72 hrs by WST-8 assay; details: SK-BR-3, 72 h
MCF7 = assay: Cytotoxicity against human MCF7 cells after 72 hrs by WST-8 assay; details: MCF7, 72 h
PC-3 = assay: Cytotoxicity against human PC3 cells after 72 hrs by WST-8 assay; details: PC-3, 72 h

Row | Structure (SMILES) | IC50 [1] [µM] | IC50 (SK-BR-3) [µM] | IC50 (MCF7) [µM] | IC50 (PC-3) [µM]
1 | COc1cc(O)c2c(c1CC=C(C)C)OC(c1ccccc1)CC2=O (configuration not stated) | 24.2 | 34.4 | 30.3 | 35.3
2 | COc1cc2c(c3c1C(C)(C)C(C)O3)C(=O)CC(c1ccccc1)O2 (configuration not stated) | 18.6 | 14 | 29.5 | 10.4
3 | COc1cc(O)c2c(c1)O[C@H](c1ccccc1)CC2=O [PINOSTROBIN] | > 100 | 94.3 | 84.9 | 86.7
